According to patent US20050159599A1, “Cyclic compound, process for producing the same, and pest control agent” (priority 2002, published 2005):
Where two headings read alike, the source gives them in different places.

What was measured:
Format in all cases: in vivo
Plutella xylostella [1] = test: Insecticidal effect for Plutella xylostella by immersion treatment of host crop (Test Example 1); conditions: cabbage leaf dipped, second-instar larvae of Plutella xylostella, fifth day after; for rate of dead pests (%): 100 ppm; for pest or weed control at 100 ppm: foliar, 120 h, read-out: rate of dead pests (%)
Experimental: Insecticidal Effect for Plutella xylostella by Immersion Treatment of Host Crop One true leaf of 7 to 8-leave stage cabbage was cut off and dipped in a pesticidal solution for a few seconds, which was prepared by dissolving 5 mg of test compound (represented by the compound Nos. in the above Examples) in 0.5 ml of acetone containing Tween 20 (trade name) and then diluting it to the prescribed concentration (100 ppm) with Dain (trade name, sticker) water diluted 5000-fold. After drying the pesticidal solution, the leaf was put into an ice cream cup (180 ml), and ten second-instar larvae of Plutella xylostella were set free therein. The cup was left in a temperature-controlled breeding room (24° C.). On the fifth day after, the number of surviving Plutella xylostella was examined. The rate of dead pests was calculated by the following formula. rate of dead pests (%)=(number of dead pests/number of test pests)×100

Plutella xylostella [2] = test: Insecticidal effect for Plutella xylostella by immersion treatment of host crop root (Test Example 3); conditions: for pest or weed control at 25 ppm: Plutella xylostella, 120 h, read-out: rate of dead pests (%)
Experimental: Insecticidal Effect for Plutella xylostella by Immersion Treatment of Host Crop Root
Roots of 4-leave stage cabbage was washed with tap water to remove soil, and then immersed in a pesticidal solution which was prepared by dissolving 5 mg of test compound (represented by the compound Nos. in the above Examples) in 0.5 ml of acetone containing Tween 20 (trade name) and then diluting it to the prescribed concentration (25 ppm) with ion-exchange water, and which was filled in a light-shielded Erlenmeyer flask (100 ml). On the fifth day after immersion of root, the root was cut off, and the stem and leaves were put into an ice cream cup (180 ml). Ten second-instar larvae of Plutella xylostella were set free therein, and the cup was left in a temperature-controlled breeding room (24° C.). On the fifth day after, the number of surviving Plutella xylostella was examined. The rate of dead pests was calculated by the following formula. rate of dead pests (%)=(number of dead pests/number of test pests)×100

Spodoptera litura [3] = test: Insecticidal effect for Spodoptera litura by spraying treatment to host crop (Test Example 2); conditions: 100 ppm, sprayed on soybean, third-instar larvae of Spodoptera litura, fifth day after; for pest or weed control at 100 ppm: 120 h, read-out: rate of dead pests (%)
Procedure, shortened: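 Soybean plants with fully developed primary leaves sprayed to runoff with 100 ppm compound (acetone/Tween 20, sticker water). Dried leaves given to ten third-instar larvae at 25° C.; survivors counted on day 5, mortality as dead/tested × 100.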

Spodoptera litura [4] = test: Insecticidal effect for Spodoptera litura by immersion treatment of host crop root (Test Example 4); conditions: 25 ppm, soybean root immersion 5 days, second-instar larvae of Spodoptera litura, fifth day after; for pest or weed control at 25 ppm: 120 h, read-out: rate of dead pests (%)
Experimental: Insecticidal Effect for Spodoptera litura by Immersion Treatment of Host Crop Root Roots of primary leaves developing stage soybean was washed with tap water to remove soil, and then immersed in a pesticidal solution which was prepared by dissolving 5 mg of test compound (represented by the compound Nos. in the above Examples) in 0.5 ml of acetone containing Tween 20 ([…]) with ion-exchange water, and which was filled in a light-shielded Erlenmeyer flask (100 ml). On the fifth day after immersion of root, two primary leaves were cut off, and the leaves were put into an ice cream cup (180 ml). Ten second-instar larvae of Spodoptera litura were set free therein, and the cup was left in a temperature-controlled breeding room (25° C.). On the fifth day after, the number of surviving Spodoptera litura was examined. The rate of dead pests was calculated by the following formula. rate of dead pests (%)=(number of dead pests/number of test pests)×100

[5] = 25 ppm, cabbage root immersed 5 days, ten second-instar larvae on stem and leaves, counted on the fifth day, 24° C.

O=C(c1c(F)cccc1F)N1COCN(c2ccc([S+]([O-])C(F)(F)C(F)Cl)cc2F)C1=O (centres unmarked) [I-8]
rate of dead pests (%) (Plutella xylostella [1]): 100% | rate of dead pests (%) (Plutella xylostella [2]; [5]): 100% | rate of dead pests (%) (Spodoptera litura [3]): 100% | rate of dead pests (%) (Spodoptera litura [4]): 100%

O=C(c1c(F)cccc1F)N1COCN(c2ccc([S+]([O-])C(F)(F)C(F)Cl)cc2)C1=O (centres unmarked) [I-11]
rate of dead pests (%) (Plutella xylostella [1]): 100% | rate of dead pests (%) (Plutella xylostella [2]; [5]): 100% | rate of dead pests (%) (Spodoptera litura [3]): 100% | rate of dead pests (%) (Spodoptera litura [4]): 100%

O=C(c1c(F)cccc1F)N1COCN(c2ccc([S+]([O-])C(F)(F)C(F)Cl)cc2Cl)C1=O (centres unmarked) [I-14]
rate of dead pests (%) (Plutella xylostella [2]; [5]): 100% | rate of dead pests (%) (Spodoptera litura [3]): 100% | rate of dead pests (%) (Spodoptera litura [4]): 100%

O=C(c1c(F)cccc1F)N1COCN(c2ccc([S+]([O-])C(F)(F)C(F)F)cc2Cl)C1=O (centres unmarked) [I-17]
rate of dead pests (%) (Plutella xylostella [1]): 100% | rate of dead pests (%) (Spodoptera litura [3]): 100% | rate of dead pests (%) (Spodoptera litura [4]): 100%

O=C(c1c(F)cccc1F)N1COCN(c2ccc([S+]([O-])C(F)(F)C(F)F)cc2)C1=O (centres unmarked) [I-20]
rate of dead pests (%) (Plutella xylostella [1]): 100% | rate of dead pests (%) (Plutella xylostella [2]; [5]): 100% | rate of dead pests (%) (Spodoptera litura [3]): 100% | rate of dead pests (%) (Spodoptera litura [4]): 95%

O=C(c1c(F)cccc1F)N1COCN(c2ccc([S+]([O-])C(F)(F)C(F)F)cc2F)C1=O (centres unmarked) [I-23]
rate of dead pests (%) (Plutella xylostella [2]; [5]): 95% | rate of dead pests (%) (Spodoptera litura [3]): 100% | rate of dead pests (%) (Spodoptera litura [4]): 100%

CSc1ccc(N2COCN(C(=O)c3c(F)cccc3F)C2=O)c(F)c1 [I-28]
rate of dead pests (%) (Plutella xylostella [1]): 100% | rate of dead pests (%) (Plutella xylostella [2]; [5]): 100% | rate of dead pests (%) (Spodoptera litura [3]): 100% | rate of dead pests (%) (Spodoptera litura [4]): 100%

O=C(c1c(F)cccc1F)N1COCN(c2ccc(SCC(F)(F)F)cc2F)C1=O [I-34]
rate of dead pests (%) (Plutella xylostella [1]): 100% | rate of dead pests (%) (Plutella xylostella [2]; [5]): 100% | rate of dead pests (%) (Spodoptera litura [3]): 100%

O=C(c1c(F)cccc1F)N1COCN(c2ccc(S(=O)(=O)C(F)F)cc2F)C1=O [I-43, 3-(2,6-difluorobenzoyl)-5-[4-(difluoromethylsulfonyl)-2-fluorophenyl]tetrahydro-4H-1,3,5-oxadiazin-4-one]
pest or weed control at 100 ppm (Plutella xylostella [1]): 100% | pest or weed control at 100 ppm (Spodoptera litura [3]): 100% | pest or weed control at 25 ppm (Spodoptera litura [4]): 100%

Cc1cc([S+]([O-])C(F)(F)F)ccc1N1COCN(C(=O)c2c(F)cccc2F)C1=O (centres unmarked) [I-69]
rate of dead pests (%) (Plutella xylostella [2]; [5]): 100% | rate of dead pests (%) (Spodoptera litura [3]): 100%

Cc1cc(N2COCN(C(=O)c3c(F)cccc3F)C2=O)ccc1SC(F)(F)F [I-71]
rate of dead pests (%) (Plutella xylostella [2]; [5]): 95% | rate of dead pests (%) (Spodoptera litura [3]): 100% | rate of dead pests (%) (Spodoptera litura [4]): 90%

Cc1cc(N2COCN(C(=O)c3c(F)cccc3F)C2=O)ccc1[S+]([O-])C(F)(F)F (centres unmarked) [I-72]
rate of dead pests (%) (Plutella xylostella [2]; [5]): 100% | rate of dead pests (%) (Spodoptera litura [3]): 100%

O=C(c1c(F)cccc1F)N1COCN(c2ccc([S+]([O-])C(F)(F)F)cc2Cl)C1=O (centres unmarked) [I-75]
rate of dead pests (%) (Plutella xylostella [2]; [5]): 95% | rate of dead pests (%) (Spodoptera litura [3]): 100% | rate of dead pests (%) (Spodoptera litura [4]): 100%

O=C(c1c(F)cccc1F)N1COCN(c2ccc([S+]([O-])C(F)(F)F)c(Cl)c2)C1=O (centres unmarked) [I-78]
rate of dead pests (%) (Plutella xylostella [2]; [5]): 90% | rate of dead pests (%) (Spodoptera litura [3]): 100% | rate of dead pests (%) (Spodoptera litura [4]): 100%

O=C(c1c(F)cccc1F)N1COCN(c2ccc([S+]([O-])C(F)(F)F)c(F)c2)C1=O (centres unmarked) [I-81]
rate of dead pests (%) (Plutella xylostella [1]): 100% | rate of dead pests (%) (Plutella xylostella [2]; [5]): 100% | rate of dead pests (%) (Spodoptera litura [3]): 100%

Cc1c(N2COCN(C(=O)c3c(F)cccc3F)C2=O)ccc([S+]([O-])C(F)(F)F)c1C (centres unmarked) [I-84]
rate of dead pests (%) (Plutella xylostella [2]; [5]): 100% | rate of dead pests (%) (Spodoptera litura [3]): 100%

O=C(c1c(F)cccc1F)N1COCN(c2c(F)cc([S+]([O-])C(F)(F)F)cc2Cl)C1=O (centres unmarked) [I-102]
rate of dead pests (%) (Plutella xylostella [2]; [5]): 100% | rate of dead pests (%) (Spodoptera litura [3]): 100%

O=C(c1c(F)cccc1F)N1COCN(c2c(F)cc([S+]([O-])C(F)(F)F)cc2F)C1=O (centres unmarked) [I-105]
rate of dead pests (%) (Plutella xylostella [2]; [5]): 100% | rate of dead pests (%) (Spodoptera litura [3]): 100% | rate of dead pests (%) (Spodoptera litura [4]): 100%

O=C(c1c(F)cccc1F)N1COCN(c2cc(F)c([S+]([O-])C(F)(F)F)cc2F)C1=O (centres unmarked) [I-111]
rate of dead pests (%) (Plutella xylostella [2]; [5]): 100% | rate of dead pests (%) (Spodoptera litura [3]): 100%

Cc1c(N2COCN(C(=O)c3c(F)cccc3F)C2=O)ccc([S+]([O-])C(F)(F)F)c1Cl (centres unmarked) [I-123]
rate of dead pests (%) (Plutella xylostella [2]; [5]): 100% | rate of dead pests (%) (Spodoptera litura [3]): 100%

Cc1cc([S+]([O-])C(F)(F)F)c(F)cc1N1COCN(C(=O)c2c(F)cccc2F)C1=O (centres unmarked) [I-126]
rate of dead pests (%) (Plutella xylostella [2]; [5]): 100% | rate of dead pests (%) (Spodoptera litura [3]): 100%

O=C(c1c(F)cccc1F)N1COCN(c2ccc([S+]([O-])C(F)(F)C(F)(F)F)cc2F)C1=O (centres unmarked) [I-129, 3-(2,6-difluorobenzoyl)-5-[2-fluoro-4-(1,1,2,2,2-pentafluoroethylsulfinyl)phenyl]tetrahydro-4H-1,3,5-oxadiazin-4-one]
pest or weed control at 25 ppm (Plutella xylostella [2]; [5]): 100% | pest or weed control at 100 ppm (Spodoptera litura [3]): 100% | pest or weed control at 25 ppm (Spodoptera litura [4]): 100%

O=C(c1c(F)cccc1F)N1COCN(c2ccc([S+]([O-])C(F)(F)C(F)(F)C(F)(F)F)cc2F)C1=O (centres unmarked) [I-144, 3-(2,6-difluorobenzoyl)-5-[2-fluoro-4-(1,1,2,2,3,3,3-heptafluoro-1-propylsulfinyl)phenyl]tetrahydro-4H-1,3,5-oxadiazin-4-one]
pest or weed control at 25 ppm (Plutella xylostella [2]; in Brassica oleracea): 95%

O=C(c1c(F)cccc1Cl)N1COCN(c2ccc(SC(F)F)cc2F)C1=O [I-218]
rate of dead pests (%) (Plutella xylostella [1]): 100% | rate of dead pests (%) (Spodoptera litura [3]): 100% | rate of dead pests (%) (Spodoptera litura [4]): 100%

O=C(c1c(F)cccc1Cl)N1COCN(c2ccc(SC(F)(F)F)cc2F)C1=O [I-221]
rate of dead pests (%) (Plutella xylostella [1]): 100% | rate of dead pests (%) (Spodoptera litura [3]): 100% | rate of dead pests (%) (Spodoptera litura [4]): 100%

Cc1cc(N2COCN(C(=O)c3c(F)cccc3Cl)C2=O)ccc1[S+]([O-])C(F)(F)F (centres unmarked) [I-249]
rate of dead pests (%) (Plutella xylostella [2]; [5]): 95% | rate of dead pests (%) (Spodoptera litura [3]): 100%

O=C(c1c(F)cccc1Cl)N1COCN(c2ccc([S+]([O-])C(F)(F)C(F)(F)C(F)(F)F)cc2F)C1=O (centres unmarked) [I-321]
rate of dead pests (%) (Plutella xylostella [2]; [5]): 95% | rate of dead pests (%) (Spodoptera litura [3]): 100% | rate of dead pests (%) (Spodoptera litura [4]): 100%

COC(=O)N1CN(C(=O)c2c(F)cccc2F)C(=O)N(c2cc(Cl)c(F)c(Cl)c2F)C1 [III-61]
rate of dead pests (%) (Plutella xylostella [1]): 100% | rate of dead pests (%) (Spodoptera litura [4]): 100%

COC(=O)C(=O)N1CN(C(=O)c2c(F)cccc2F)C(=O)N(c2ccc(SC(F)(F)C(F)Cl)cc2F)C1 (centres unmarked) [III-79]
rate of dead pests (%) (Plutella xylostella [1]): 100% | rate of dead pests (%) (Spodoptera litura [3]): 100% | rate of dead pests (%) (Spodoptera litura [4]): 100%

O=C(c1c(F)cccc1F)N1CNCN(c2ccc([S+]([O-])C(F)(F)C(F)Cl)cc2F)C1=O (centres unmarked) [III-91]
rate of dead pests (%) (Plutella xylostella [2]; [5]): 100% | rate of dead pests (%) (Spodoptera litura [3]): 100% | rate of dead pests (%) (Spodoptera litura [4]): 95%

CS(=O)(=O)N1CN(C(=O)c2c(F)cccc2F)C(=O)N(c2ccc([S+]([O-])C(F)F)cc2F)C1 (centres unmarked) [III-154]
rate of dead pests (%) (Plutella xylostella [2]; [5]): 100% | rate of dead pests (%) (Spodoptera litura [3]): 100% | rate of dead pests (%) (Spodoptera litura [4]): 100%

O=C(c1c(F)cccc1F)N1CN=CN(c2cc(Cl)c(F)c(Cl)c2F)C1=O [V-4, 1-(3,5-dichloro-2,4-difluorophenyl)-3-(2,6-difluorobenzoyl)-3,4-dihydro-1,3,5-triazin-2(1H)-one]
pest or weed control at 100 ppm (Plutella xylostella [1]): 100% | pest or weed control at 25 ppm (Plutella xylostella [2]; [5]): 95% | pest or weed control at 100 ppm (Spodoptera litura [3]): 100%
